Measurements as given in patent US20180099931A1 (AbbVie S.à.r.l., priority 2016, published 2018).
pEC50: −log10 of the molar value. Where two headings read alike, the source gives them in different places.

Target: T1, F508delCFTR (Homo sapiens, UniProt P13569, DEL508-508)
T1 construct: expressed in transfected cells; host or cells: CFBE41o- human lung-derived epithelial cells (CFBE4lo-F508delCFTR-HRP), doxycycline-inducible
Test: Cell Surface Expression-Horse Radish Peroxidase (CSE-HRP) Assay;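 for Maximum % activity (with co-corrector): co-corrector and positive control are both the same reference corrector at 2 µM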;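 for Maximum % activity (without co-corrector): percent of the 2 µM on-plate positive control corrector response above DMSO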
Type: cell-based
Settings: for Maximum % activity (with co-corrector) / Emax: maximum at any tested concentration, normalized to on-plate positive control; for Emax: read-out: Maximum % activity (without co-corrector)

[1] = CSE-HRP, test compound without co-corrector, read-out: EC50 (without co-corrector)
[2] = CSE-HRP, with co-corrector (2 μM of 3-[(2R,4R)-4-({[1-(2,2-difluoro-1,3-benzodioxol-5-yl)cyclopropyl]carbonyl}amino)-7-methoxy-3,4-dihydro-2H-chromen-2-yl]benzoic acid), read-out: EC50 (with co-corrector)
[3] = CSE-HRP, with co-corrector (2 μM)
[4] = test compound without co-corrector
[5] = test compound without co-corrector, read-out: EC50 (without co-corrector)
[6] = with co-corrector (2 μM of 3-[(2R,4R)-4-({[1-(2,2-difluoro-1,3-benzodioxol-5-yl)cyclopropyl]carbonyl}amino)-7-methoxy-3,4-dihydro-2H-chromen-2-yl]benzoic acid), read-out: EC50 (with co-corrector)
[7] = with co-corrector (2 μM of 3-[(2R,4R)-4-({[1-(2,2-difluoro-1,3-benzodioxol-5-yl)cyclopropyl]carbonyl}amino)-7-methoxy-3,4-dihydro-2H-chromen-2-yl]benzoic acid)

T1 sequence (P13569 with tags, fused parts or gaps DEL508-508): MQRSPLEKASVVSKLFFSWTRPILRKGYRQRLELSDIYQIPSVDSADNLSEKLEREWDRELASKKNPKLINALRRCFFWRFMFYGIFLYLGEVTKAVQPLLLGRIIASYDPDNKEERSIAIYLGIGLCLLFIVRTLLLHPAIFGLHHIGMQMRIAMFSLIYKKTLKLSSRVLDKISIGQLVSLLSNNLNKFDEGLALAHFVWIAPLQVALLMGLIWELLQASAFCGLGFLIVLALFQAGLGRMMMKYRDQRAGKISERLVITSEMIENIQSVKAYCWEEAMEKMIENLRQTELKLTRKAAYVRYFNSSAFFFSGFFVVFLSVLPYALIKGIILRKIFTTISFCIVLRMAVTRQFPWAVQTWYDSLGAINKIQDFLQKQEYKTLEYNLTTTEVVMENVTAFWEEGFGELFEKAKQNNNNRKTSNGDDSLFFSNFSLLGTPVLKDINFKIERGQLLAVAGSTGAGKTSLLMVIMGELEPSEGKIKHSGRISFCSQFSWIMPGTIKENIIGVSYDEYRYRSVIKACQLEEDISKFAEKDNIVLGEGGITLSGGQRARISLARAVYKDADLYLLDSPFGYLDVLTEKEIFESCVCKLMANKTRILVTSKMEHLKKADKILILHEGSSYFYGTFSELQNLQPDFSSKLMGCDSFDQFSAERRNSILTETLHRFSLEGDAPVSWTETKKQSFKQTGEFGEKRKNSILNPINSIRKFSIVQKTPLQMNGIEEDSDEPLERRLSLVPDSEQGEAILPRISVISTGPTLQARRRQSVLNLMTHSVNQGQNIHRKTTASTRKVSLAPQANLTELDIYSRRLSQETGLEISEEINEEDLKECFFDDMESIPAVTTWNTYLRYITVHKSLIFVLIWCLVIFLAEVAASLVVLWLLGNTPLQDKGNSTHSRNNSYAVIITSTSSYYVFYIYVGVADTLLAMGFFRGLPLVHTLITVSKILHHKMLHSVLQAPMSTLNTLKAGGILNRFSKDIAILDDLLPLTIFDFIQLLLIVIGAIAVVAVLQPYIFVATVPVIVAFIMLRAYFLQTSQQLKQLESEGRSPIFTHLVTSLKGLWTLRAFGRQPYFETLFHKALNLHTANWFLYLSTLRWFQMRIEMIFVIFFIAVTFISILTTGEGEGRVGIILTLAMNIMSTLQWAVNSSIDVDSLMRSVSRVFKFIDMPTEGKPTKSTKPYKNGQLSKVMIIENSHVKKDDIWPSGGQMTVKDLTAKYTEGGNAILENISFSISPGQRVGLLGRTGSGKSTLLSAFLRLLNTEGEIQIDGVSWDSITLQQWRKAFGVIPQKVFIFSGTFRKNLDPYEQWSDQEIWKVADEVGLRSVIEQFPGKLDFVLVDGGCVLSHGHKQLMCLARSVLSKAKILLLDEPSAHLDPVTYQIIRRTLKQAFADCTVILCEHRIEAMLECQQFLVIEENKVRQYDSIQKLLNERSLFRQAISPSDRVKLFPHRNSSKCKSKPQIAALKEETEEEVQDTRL

| SMILES | pEC50 [1] | pEC50 [2] | Maximum % activity (with co-corrector) [3] | Emax (CSE-HRP, without co-corrector) [%] | Emax [4] [%] | pEC50 [5] | pEC50 [6] | Maximum % activity (with co-corrector) (with co-corrector (2 μM)) | Emax (without co-corrector) [%] | Maximum % activity (with co-corrector) [7] |
| --- | --- | --- | --- | --- | --- | --- | --- | --- | --- | --- |
| COc1ccc(C(C)(C)C)cc1CN[C@H]1[C@H](C(C)(C)C)[C@@H](C(=O)O)N(C(=O)[C@H](C)OC)[C@H]1c1ccccc1 [II-308] | 5.00 to 6.00 | 5.00 to 6.00 | +++ (≥350) | 100 to 200 |  |  |  |  |  |  |
| CC(C)(C)[C@H]1[C@H](NCc2ccc(Cl)c(Cl)c2)[C@H](c2ccccc2)N(C(=O)C2CCCCC2)[C@@H]1C(=O)O [III-130] |  |  |  |  | < 100 | < 5.00 | 5.00 to 6.00 | ++ (≥150 and <350) |  |  |
| COc1ccc(C(C)(C)C)cc1CN[C@H]1[C@H](C(C)(C)C)[C@@H](C(=O)O)N(C(=O)C2CCCCC2)[C@H]1c1cccnc1OC(F)F [Example I-225] |  |  |  |  |  | 5.00 to 6.00 | 5.00 to 6.00 | +++ (≥350) | 100 to 200 |  |
| COc1cccc(CN[C@@H]2[C@@H](C(C)(C)C)[C@H](C(=O)O)N(C(=O)C3CCCCC3)[C@@H]2c2ccccc2)c1 (racemic) [III-14] |  |  |  |  | < 100 | < 5.00 | 5.00 to 6.00 |  |  | ++ (≥150 and <350) |
| COc1ncc(C(F)(F)F)cc1CN[C@H]1[C@H](C(C)(C)C)[C@@H](C(=O)O)N(C(=O)OC(C)C)[C@H]1c1ccccc1C(C)C [Example 77, (2S,3S,4S,5S)-3-tert-butyl-4-({[2-methoxy-5-(trifluoromethyl)pyridin-3-yl]methyl}amino)-1-{[(propan-2-yl)oxy]carbonyl}-5-[2-(propan-2-yl)phenyl]pyrrolidine-2-carboxylic acid] |  |  |  |  |  | 5.00 to 6.00 | 5.00 to 6.00 | +++ (≥350) | > 200 |  |
| COc1ncc(C2CCC2)cc1CN[C@H]1[C@H](C(C)(C)C)[C@@H](C(=O)O)N(C(=O)C2CCC2)[C@H]1c1ccccc1C(F)(F)F [Example I-278] | 5.00 to 6.00 | 5.00 to 6.00 | ++ (≥150 and <350) | < 100 |  |  |  |  |  |  |
| COc1ccc(Cl)cc1CN[C@@H]1[C@@H](C(C)(C)C)[C@H](C(=O)O)N(C(=O)C2CCCCC2)[C@@H]1c1ccccc1 (racemic) [III-27] |  |  |  |  | > 200 | 5.00 to 6.00 | 5.00 to 6.00 |  |  | +++ (≥350) |
| COc1ccc(-c2cccc(C#N)c2)cc1CN[C@H]1[C@H](C(C)(C)C)[C@@H](C(=O)O)N(C(=O)C2CCCCC2)[C@H]1c1ccccc1 [II-281] | 5.00 to 6.00 | 5.00 to 6.00 | +++ (≥350) | 100 to 200 |  |  |  |  |  |  |
| COc1ccc(C(C)(C)C)cc1CN[C@H]1[C@H](C(C)(C)C)[C@@H](C(=O)O)N(C(=O)[C@H]2CCCC(F)(F)C2)[C@H]1c1ccccc1 [Example 30, (2S,3S,4S,5S)-3-tert-butyl-4-{[(5-tert-butyl-2-methoxyphenyl)methyl]amino}-1-[(1S)-3,3-difluorocyclohexane-1-carbonyl]-5-phenylpyrrolidine-2-carboxylic acid] |  |  |  |  |  | 5.00 to 6.00 | 5.00 to 6.00 | +++ (≥350) | > 200 |  |
| COc1ccc(C(F)(F)F)cc1CN[C@H]1[C@H](C23CC(C2)C3)[C@@H](C(=O)O)N(C(=O)C2CCCCC2)[C@H]1c1ccccc1 [Example 56] |  |  |  |  |  | 5.00 to 6.00 | > 6.00 | +++ (≥350) | 100 to 200 |  |
| COc1ccc(OC(F)(F)F)cc1CN[C@H]1[C@H](C(C)(C)C)[C@@H](C(=O)O)N(C(=O)OC(C)C)[C@H]1c1cccnc1OC(C)C [III-231] |  |  |  |  | > 200 | 5.00 to 6.00 | 5.00 to 6.00 | +++ (≥350) |  |  |
| CC(C)(C)[C@H]1[C@H](NCC2(c3ccccc3Cl)CCOCC2)[C@H](c2ccccc2)N(C(=O)C2CCCCC2)[C@@H]1C(=O)O [Example I-219] |  |  |  |  |  | 5.00 to 6.00 | 5.00 to 6.00 | +++ (≥350) | 100 to 200 |  |
| COc1cc(Cl)ccc1CN[C@@H]1[C@@H](C(C)(C)C)[C@H](C(=O)O)N(C(=O)[C@@H]2CCC[C@@H](OC)C2)[C@@H]1c1ccccc1 (racemic) [II-38] | 5.00 to 6.00 | 5.00 to 6.00 | +++ (≥350) | 100 to 200 |  |  |  |  |  |  |
| CC(C)(C)[C@@H]1[C@@H](NCc2cccnc2N2CCOCC2)[C@@H](c2ccccc2)N(C(=O)C2CCCCC2)[C@H]1C(=O)O (racemic) [III-28] |  |  |  |  | < 100 | 5.00 to 6.00 | 5.00 to 6.00 |  |  | ++ (≥150 and <350) |
| CC(C)OC(=O)N1[C@H](c2ccccc2)[C@H](Nc2cc(C(F)(F)F)ccn2)[C@@H](C(C)(C)C)[C@@H]1C(=O)O (racemic) [III-38] |  |  |  |  | < 100 | 5.00 to 6.00 | 5.00 to 6.00 |  |  | +++ (≥350) |
| COc1cccc([C@@H]2[C@H](NCc3ccccc3OC(F)F)[C@@H](C(C)(C)C)[C@H](C(=O)O)N2C(=O)C2CCCCC2)n1 (racemic) [Example I-16] |  |  |  |  |  | 5.00 to 6.00 | 5.00 to 6.00 | +++ (≥350) | < 100 |  |
| COc1ccc(Cl)cc1CN[C@@H]1[C@@H](C)[C@H](C(=O)O)N(C(=O)N(C(C)C)C(C)C)[C@@H]1c1ccccc1 (racemic) [III-37] |  |  |  |  | < 100 | < 5.00 | 5.00 to 6.00 |  |  | ++ (≥150 and <350) |
| COc1ccc(-c2ccccc2)cc1CN[C@H]1[C@H](C(C)(C)OC)[C@@H](C(=O)O)N(C(=O)C2CCCCC2)[C@H]1c1ccccc1 [Example I-87] |  |  |  |  |  | > 6.00 | > 6.00 | +++ (≥350) | > 200 |  |
| COc1ccc(-c2cccc(F)c2F)cc1CN[C@H]1[C@H](C(C)(C)C)[C@@H](C(=O)O)N(C(=O)C2CCCCC2)[C@H]1c1ccccc1 [II-286] | > 6.00 | > 6.00 | +++ (≥350) | > 200 |  |  |  |  |  |  |
| COc1ccc(C(C)(C)C)cc1CN[C@H]1[C@H](C(C)(C)C)[C@@H](C(=O)O)N(C(=O)C(C)Oc2cccc(C)c2C)[C@H]1c1ccccc1 (stereo partly shown) [II-323] |  |  |  |  | 100 to 200 | 5.00 to 6.00 | > 6.00 |  |  | +++ (≥350) |
| COc1ncc(C(F)(F)F)cc1CN[C@H]1[C@H](C(C)(C)C)[C@@H](C(=O)O)N(C(=O)C2CCC(C)(C)O2)[C@H]1c1ccccc1 (stereo partly shown) [II-434] |  |  |  |  | 100 to 200 | 5.00 to 6.00 | 5.00 to 6.00 |  |  | +++ (≥350) |
| COc1ccc(C(C)(C)C)cc1CN[C@H]1[C@H](C(C)(C)C)[C@@H](C(=O)O)N(C(=O)c2onc3ccccc23)[C@H]1c1ccccc1 [II-231] | > 6.00 | > 6.00 | +++ (≥350) | 100 to 200 |  |  |  |  |  |  |
| CC(C)(C)[C@H]1[C@H](NCc2ccc(F)c(C#N)c2)[C@H](c2ccccc2)N(C(=O)C2CCCCC2)[C@@H]1C(=O)O [III-125] |  |  |  |  | < 100 | < 5.00 | 5.00 to 6.00 | ++ (≥150 and <350) |  |  |
| COc1cc(C(F)(F)F)ccc1CN[C@H]1[C@H](C(C)(C)C)[C@@H](C(=O)O)N(C(=O)C2CCCCO2)[C@H]1c1cccnc1OC (relative stereo) [II-98] | 5.00 to 6.00 | 5.00 to 6.00 | +++ (≥350) | 100 to 200 |  |  |  |  |  |  |
| COc1ccc(C2(C)CCC2)cc1CN[C@H]1[C@H](C(C)(C)C)[C@@H](C(=O)O)N(C(=O)OC(C)C)[C@H]1c1cccnc1N(C)C [Example 80, (2S,3S,4S,5S)-3-tert-butyl-5-[2-(dimethylamino)pyridin-3-yl]-4-({[2-methoxy-5-(1-methylcyclobutyl)phenyl]methyl}amino)-1-{[(propan-2-yl)oxy]carbonyl}pyrrolidine-2-carboxylic acid] |  |  |  |  |  | 5.00 to 6.00 | 5.00 to 6.00 | +++ (≥350) | > 200 |  |
